The text below walks through data of patent US10189824B2, “Pyrimidine-diamine dual HSP90/TRAP1 inhibitors” (CalAsia Pharmaceuticals, Inc., priority 2014, dated 2019).

The subject of one series is U251MG cells. The series is described as follows: TMRE assay, cell-based (mitochondrial membrane potential). The following applies: for Decrease of specific TMRE fluorescence vs untreated: U251MG cells, 48 h. On the procedure: […] TMRE (200 nM) was then added to wells for 30 min and monitored for changes in fluorescence activity either by fluorescence microscopy using an inverted Zeiss LSM 710 confocal microscope or by spectrophotometry using a fluorescence plate reader (544ex/590em) after washing the cells. Specific TMRE fluorescence was calculated by comparison to matched wells pretreated with 20 uM FCCP for 10 min prior to addition of TMRE. For mitochondria assays, untreated U251MG cells grown to confluence in T75 culture flasks. Mitochondria from these cells were isolated using a mitochondria isolation kit (Thermo Scientific) and loaded with 0.1 mM TMRE in kit buffer at 37° C. for 20 min. After washing, the TMRE-loaded mitochondria (2 ug per well) were incubated in a 96 well black plate with test compounds and monitored kinetically at 30° C. for changes in fluorescence using a fluorescence plate reader (ex 544/em 590). The fluorescence intensity after treatment with 20 um FCCP in control wells corresponded to a fully depolarized state.
Mitochondrial integrity was evaluated using Tetramethylrhodamine ethyl ester (TMRE) assay. A TMRE assay kit (Abcam) was used to evaluate Hsp90/TRAP1 inhibitor-induced changes in mitochondrial membrane potential. […] TMRE (200 nM) was then added to wells for 30 min and monitored for changes in fluorescence activity using a fluorescence plate reader (ex544/em 590) after washing the cells. Specific TMRE fluorescence was calculated by comparison to matched wells pretreated with the depolarizing proton ionophore carbonyl cyanide 4-(trifluoromethoxy)phenylhydrazone (FCCP) at 20 uM 10 min prior to addition of TMRE. For mitochondria assays, mitochondria was isolated using a kit from Thermoscientific and loaded with 0.1 mM TMRE. TMRE-loaded mitochondria (2 μg per well) were incubated with test compounds and monitored kinetically at 30° C. for changes in fluorescence using a flurorescence plate reader (ex 544/em 590) (FIGS. 6A, 9A and 12).

A further series has as its target human Hsp90. The series is described as follows: Fluorescence polarization (FP) displacement assay, GA-FITC, Hsp90. The following applies: FP displacement of GA-FITC, 50 nM Hsp90; for Ki: read-out: Biochemical efficacy HSP90 Ki. It counts as binding. On the procedure: (§1) Prior to transforming into BL21 (DE3) all the cloned vectors were sequence confirmed. Expressed proteins were purified using NTA resin (Life Technologies) followed by size exclusion chromatography using FPLC. The molecular mass of the purified proteins was confirmed by MALDI-TOF and assessed for purity by SDS-PAGE.
(§2) The assay conditions were 20 mM HEPES, pH-7.5, 50 mM KCl, 5 mM MgCl2, 20 mM sodium molybdate, 2 mM DTT, 0.01% NP40, 100 ug/ml BSA, 50 nM Hsp90 or 200 nM TRAP1, 1% DMSO, and 8 nM (for Hsp90) or 20 nM (for TRAP1) GA-FITC in the presence of increasing concentrations of test compound.

Series [1] concerns mitochondria isolated from HEI193 cells. The series is described as follows: Analysis of drug accumulation in the mitochondria. The class given is in vitro ADME, human. The note with it: 20 uM. Here is the method:
Mitochondria (100 μg) isolated from MDA-MB-231 and […] tumor cell lines were incubated with 20 μM CAP01088 for 30 mins at 30° C. in mitochondrial incubation buffer (MIB: 0.2M sucrose, 10 mM Tris-MOPS, pH 7.4, 5 mM succinaye, 1 mM Pi, 2 μM rotenone, and 10 μM EGTA with modifications as needed). The mitochondria were chilled on ice and collected by centrifugation at 8000 g for 10 min. The supernatant was collected and the mitochondrial pellet was washed twice with MIB and dissolved in lysis buffer (acetonitrile/methanol, 3:1). The concentration of CAP01088 in supernatant and mitochondrial extract was analyzed using a Waters HPLC/Mass spectrometer (FIGS. 6B and 9B).

The target of the next series is T1, TRAP1 (Homo sapiens, UniProt Q12931).
T1 construct: Recombinant full-length human Hsp90 and 459 TRAP1 were cloned; 6His (TEV-cleavable) (N); made in house; host or cells: E. coli BL21 (DE3)
T1 sequence (Q12931 60-704): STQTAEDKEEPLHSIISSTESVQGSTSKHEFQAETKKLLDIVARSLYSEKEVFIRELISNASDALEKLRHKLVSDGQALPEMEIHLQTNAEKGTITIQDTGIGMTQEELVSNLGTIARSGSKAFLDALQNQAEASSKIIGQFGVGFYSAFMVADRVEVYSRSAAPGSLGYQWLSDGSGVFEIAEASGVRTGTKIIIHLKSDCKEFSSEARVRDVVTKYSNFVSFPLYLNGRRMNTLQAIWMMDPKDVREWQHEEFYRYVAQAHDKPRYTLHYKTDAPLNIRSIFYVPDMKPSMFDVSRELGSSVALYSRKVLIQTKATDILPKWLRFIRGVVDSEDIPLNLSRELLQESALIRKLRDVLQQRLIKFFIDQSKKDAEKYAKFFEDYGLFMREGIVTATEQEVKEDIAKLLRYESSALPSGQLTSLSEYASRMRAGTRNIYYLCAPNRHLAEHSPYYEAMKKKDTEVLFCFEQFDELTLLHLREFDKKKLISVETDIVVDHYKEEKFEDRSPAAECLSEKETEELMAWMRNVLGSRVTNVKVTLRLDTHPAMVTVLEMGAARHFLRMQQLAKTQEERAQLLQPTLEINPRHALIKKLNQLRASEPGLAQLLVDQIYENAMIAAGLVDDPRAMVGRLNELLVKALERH
The series is described as follows: Fluorescence polarization (FP) displacement assay, GA-FITC, TRAP1. It counts as binding. The following applies: FP displacement of GA-FITC, 200 nM TRAP1; for Ki: NA: Not active, read-out: Biochemical efficacy TRAP1 Ki. Here is the method: as §1, §2

In series [2] the test system is U251MG cell mitochondrial respiration. In words: Mitochondrial respiratory function assay (OCR, Seahorse). The class given is cell-based. The note with it: U251MG cells, stressed conditions (oligomycin, FCCP, rotenone); within minutes. Here is the method:
The effect of test compounds on the mitochondrial oxygen consumption rate (OCR) was determined in real time using a Seahorse Xr24 extracellular flux analyzer (Seahorse Bioscience). The cell-based assay was performed essentially as recommended by the manufacturer. Briefly, cells were seeded in a 24 well XF plate using an appropriate cell density. “Flux Pak” cartridge (containing the O2 and H^+ sensitive fluorophores) were hydrated in the XF calibrant solution overnight just prior to running the assay. On the following day, the cells were replenished with XF assay media (unbuffered DMEM containing 10 mM glucose and 2 mM pyruvate) and placed in a CO2 free 37° C. incubator for an additional one hour. Basal OCR was measured before the wells were injected with test compounds. Subsequently, mitochondrial bioenergetics stress was determined by treating the cells sequentially with 0.125 mg/ml Oligomycin (ATP synthase inhibitor), […] FCCP (uncoupler) and […] rotenone (Complex I inhibitor) while continuously measuring the OCR.

Each structure is given as a SMILES string.

For `COc1c(C)cnc(CN(CC2(c3ccc(F)cc3)CCOCC2)c2cc(Cl)nc(N)n2)c1C` [Compound A, 6-chloro-4-N-{[4-(4-fluorophenyl)oxan-4-yl]methyl}-4-N-[(4-methoxy-3,5-dimethylpyridin-2-yl)methyl]pyrimidine-2,4-diamine], the “Effect on TMRE fluorescence of U251MG cells” value in the series on U251MG cells (2 hour or 4 hr) was “dose-dependent decrease”. Moreover, the IC50 at human Hsp90 (read-out: Biochemical efficacy HSP90 IC50) was found to be 44 nM; at TRAP1 (read-out: Biochemical efficacy TRAP1 IC50) it was 312 nM. Also, the values for the inhibition constant (Ki) at human Hsp90 and at TRAP1 were 11 nM and 39 nM, respectively. The “Accumulation in isolated mitochondria compared to culture medium” value in series [1] was “greater than 6 fold”.
Consider `COc1c(C)cnc(CN(CCc2ccccn2)c2cc(Cl)nc(N)n2)c1C` [Compound 1, 6-chloro-4-N-[(4-methoxy-3,5-dimethylpyridin-2yl)methyl]-4-N-[2-(pyridine-2-yl)ethyl]pyrimidine-2,4-amine], for which the “Effect on mitochondrial oxygen consumption rate” value in series [2] is recorded as “dose-dependent decrease”. The entries for the “Decrease of specific TMRE fluorescence vs untreated” value in the series with U251MG cells (5 uM) and with U251MG cells (50 uM) were 42% and 73%, respectively. In addition, the Ki at human Hsp90 was 39.4 nM; at TRAP1 it was 50.4 nM.
